Data published in US20190330224A1, “ACC INHIBITORS AND USES THEREOF” (Gilead Apollo, LLC, priority 2015, published 2019).
pIC50: −log10 of the molar value. Values after ≈ are worked out from the molar mass of the structure shown. Like-named read-outs stand apart in the source and are kept apart here.

Columns and labels:
Botrtyis cinerea (Bc) = experiment: Growth inhibition assay of fungal pathogens, Bc; assay type: cell-based; conditions: read-out: Concentration at 90% Inhibition, Bc
Experimental: (§1) Compounds of the present invention were evaluated in a growth inhibition assay to determine the ability to control the growth of fungal pathogens, such as Botrtyis cinerea (Bc). Collectotrichum graminicola (Cg), Diplodia maydis (Dm), Fusarium moniliforme (Fm), Fusarium virguliforme (Fv), Phytophthora capsici (Pc), Rhizoctonia solani (Rs), and Septoria tritici (St). Compounds to be tested were dissolved in DMSO at 2.5 mg/ml to produce compound stock solutions (“stocks”). Stocks were diluted with DMSO by a five-fold dilution in a 96-well stock plate, and two sets of final concentrations of 50, 10, and 2 ppm or 2, 0.4, and 0.08 ppm were obtained in vitro. A set of positive controls was also prepared, with various concentrations of Soraphen (2, 0.4, and 0.08 ppm), Metalaxyl (1.1, 0.22, and 0.04 ppm), and Metconazole (2, 0.4, and 0.08 ppm or 0.2, 0.04, and 0.008 ppm) after the five-fold dilutions. Negative controls on each plate included 2% DMSO, water, and a blank (media+2% DMSO). Fungal spores were isolated from previously sub-cultured plates of Botrtyis cinerea (Bc), Collectotrichum graminicola (Cg), Diplodia maydis (Dm), Fusarium moniliforme (Fm), Fusarium virguliforme (Fv), Phytophthora capsici (Pc), and Septoria tritici (St). The isolated spores were diluted to individual concentrations with a 17% V8 liquid media. For Rhizoctonia solani (Rs) and Pythium irregulare, 1.5 mm mycelial plugs were used in place of spores and ¼ Potato Dextrose Broth (PDB) was used for dilution. The spore concentrations and plug sizes were based on growth curves generated at 48 hours for each pathogen. In a second 96-well plate, the spores or mycelial plugs, media, diluted compound solutions, and controls were combined. Once the compound was added, a true final concentration of compound in each well was measured by an OD600 reading, which adjusted for any compound precipitation that might have occurred in the well. Plate readings were repeated at both 24 and 48 hours. The blank negative control was used as a background subtraction. Additional visual ratings were performed at both 24 and 48 hours for checking on precipitation and confirming efficacy. Visual and OD600 ratings of the compounds at 48 hours were compared to the 2% DMSO negative control, and the percent of pathogen growth inhibition was determined based on those values.

Fungal ACC2 = Fungal ACC2 (UniProt Q00955); conditions: read-out: Fungal ACC2 (IC50, in vitro ACC2 inhibition)
[1] = test system: Fusarium moniliforme (Fm); experiment: Growth inhibition assay of fungal pathogens, Fm; assay type: cell-based; conditions: Fusarium verticillioides, read-out: Concentration at 90% Inhibition, Fm
Experimental: as §1

[2] = test system: Collectotrichum graminicola (Cg); experiment: Growth inhibition assay of fungal pathogens, Cg; assay type: cell-based; conditions: read-out: Concentration at 90% Inhibition, Cg
Experimental: as §1

[3] = test system: Fusarium virguliforme (Fv); experiment: Growth inhibition assay of fungal pathogens, Fv; assay type: cell-based; conditions: read-out: Concentration at 90% Inhibition, Fv
Experimental: as §1

Diplodia maydis (Dm) = experiment: Growth inhibition assay of fungal pathogens, Dm; assay type: cell-based; conditions: Stenocarpella maydis, read-out: Concentration at 90% Inhibition, Dm
Experimental: as §1

[4] = test system: Blumeria graminis f sp. hordei; experiment: Foliar protection test, barley powdery mildew control; assay type: in vivo, Blumeria graminis f sp. hordei on Hordeum vulgare cv. Perry; conditions: 168 h, read-out: Barley Powdery Mildew Control at 50 ppm
Experimental: Compounds of the present invention were evaluated in a foliar protection test to determine the ability to control barley powdery mildew. Plants (Hordeum vulgare cv. Perry) were grown for 6 days in 2-inch square pots containing Metromix 200 medium amended with fertilizer. For propagation, plants were maintained in a growth chamber at conditions of 20 to 21° C., 16 hour light cycle, 400 uM of light, 70% humidity, and with sub-irrigation as needed. After inoculation with the pathogen of Blumeria graminis f sp. hordei, plants were kept at conditions of 20 to 22° C., 70% relative humidity, and 200 uM of light to facilitate infection and disease development. At 6 days after planting (1st true leaf fully expanded), the test compounds were dissolved in a solution of 5% acetone and 0.005% Tween 80 surfactant. An atomizer was used for applying the solution onto both sides of the leaves until thoroughly wetted. The amount of the compound applied to the leaves was typically 200, 100, 50, 10, or 2 ppm, but it may vary. At 24 hours after treatment, the plants were moved to a cooler chamber and inoculated by shaking well-colonized, untreated stock plants above the treated plants. This allowed producing a settling cloud of spores and resulting in uniform infection. Efficacy was evaluated in 7 days later by examining leaves for colonization and growth of mildew. Table 5 lists the results of barley powdery mildew control at a compound concentration of 50 ppm or 10 ppm. Compounds having an activity designated as “AA” provided a compound having >85% control of barley powdery mildew; compounds having an activity designated as “A” provided a compound having from 70% to 84% control of barley powdery mildew; compounds having an activity designated as “B” provided a compound having from 50 to 69% control of barley powdery mildew; compounds having an activity designated as “C” provided a compound having from 25 to 49% control of barley powdery mildew; and compounds having an activity designated as “D” provided a compound having <25% control of barley powdery mildew.

[5] = compound concentration 10 ppm, foliar spray, evaluated 7 days after inoculation
Human ACC2 = Human ACC2 (Homo sapiens, UniProt O00763); experiment: In vitro ACC2 inhibition assay (ADP-Glo), human ACC2; assay type: biochemical; conditions: 5 nM ACC2, 20 μM ATP, 20 μM acetyl-CoA
[6] = test system: Phytophthora capsici (Pc); experiment: Growth inhibition assay of fungal pathogens, Pc; assay type: cell-based; conditions: read-out: Concentration at 90% Inhibition, Pc
Experimental: as §1

Rhizoctonia solani (Rs) = experiment: Growth inhibition assay of fungal pathogens, Rs; assay type: cell-based; conditions: read-out: Concentration at 90% Inhibition, Rs
Experimental: as §1

Septoria tritici (St) = experiment: Growth inhibition assay of fungal pathogens, St; assay type: cell-based; conditions: Zymoseptoria tritici, read-out: Concentration at 90% Inhibition, St
Experimental: as §1

C. albicans ATCC 90028 = experiment: Anti-Fungal Activity Assay (broth microtiter MIC), C. albicans; assay type: cell-based, Candida albicans; conditions: Candida albicans, ATCC90028, 48 h, 3 replicates; MIC recorded at 48 h; read-out: MIC C. albicans ATCC 90028
Method in brief: (§2)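 MIC by visual comparison with growth control, read at 48 h (soraphen also at 24 h). Inoculum: colonies from overnight Sabouraud dextrose agar plates at 35° C, suspended in RPMI 1640+MOPS, density from standard curves. Microtiter broth dilution per CLSI M27-A3; compounds from 1 mg/mL DMSO stocks.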

[7] = test system: C. parapsilosis ATCC 22019; experiment: Anti-Fungal Activity Assay (broth microtiter MIC), C. parapsilosis; assay type: cell-based, Candida parapsilosis; conditions: Lodderomyces parapsilosis, ATCC22019, 48 h, 3 replicates; MIC recorded at 48 h; read-out: MIC C. parapsilosis ATCC 22019
Method in brief: as §2

C. krusei ATCC 6258 = experiment: Anti-Fungal Activity Assay (broth microtiter MIC), C. krusei; assay type: cell-based, Candida krusei; conditions: Pichia kudriavzevii, ATCC6258, 48 h, 3 replicates; MIC recorded at 48 h; read-out: MIC C. krusei ATCC 6258
Method in brief: as §2

[8] = compound concentration 50 ppm, foliar spray, evaluated 7 days after inoculation

Chain of Fungal ACC2 (Q00955 whole entry): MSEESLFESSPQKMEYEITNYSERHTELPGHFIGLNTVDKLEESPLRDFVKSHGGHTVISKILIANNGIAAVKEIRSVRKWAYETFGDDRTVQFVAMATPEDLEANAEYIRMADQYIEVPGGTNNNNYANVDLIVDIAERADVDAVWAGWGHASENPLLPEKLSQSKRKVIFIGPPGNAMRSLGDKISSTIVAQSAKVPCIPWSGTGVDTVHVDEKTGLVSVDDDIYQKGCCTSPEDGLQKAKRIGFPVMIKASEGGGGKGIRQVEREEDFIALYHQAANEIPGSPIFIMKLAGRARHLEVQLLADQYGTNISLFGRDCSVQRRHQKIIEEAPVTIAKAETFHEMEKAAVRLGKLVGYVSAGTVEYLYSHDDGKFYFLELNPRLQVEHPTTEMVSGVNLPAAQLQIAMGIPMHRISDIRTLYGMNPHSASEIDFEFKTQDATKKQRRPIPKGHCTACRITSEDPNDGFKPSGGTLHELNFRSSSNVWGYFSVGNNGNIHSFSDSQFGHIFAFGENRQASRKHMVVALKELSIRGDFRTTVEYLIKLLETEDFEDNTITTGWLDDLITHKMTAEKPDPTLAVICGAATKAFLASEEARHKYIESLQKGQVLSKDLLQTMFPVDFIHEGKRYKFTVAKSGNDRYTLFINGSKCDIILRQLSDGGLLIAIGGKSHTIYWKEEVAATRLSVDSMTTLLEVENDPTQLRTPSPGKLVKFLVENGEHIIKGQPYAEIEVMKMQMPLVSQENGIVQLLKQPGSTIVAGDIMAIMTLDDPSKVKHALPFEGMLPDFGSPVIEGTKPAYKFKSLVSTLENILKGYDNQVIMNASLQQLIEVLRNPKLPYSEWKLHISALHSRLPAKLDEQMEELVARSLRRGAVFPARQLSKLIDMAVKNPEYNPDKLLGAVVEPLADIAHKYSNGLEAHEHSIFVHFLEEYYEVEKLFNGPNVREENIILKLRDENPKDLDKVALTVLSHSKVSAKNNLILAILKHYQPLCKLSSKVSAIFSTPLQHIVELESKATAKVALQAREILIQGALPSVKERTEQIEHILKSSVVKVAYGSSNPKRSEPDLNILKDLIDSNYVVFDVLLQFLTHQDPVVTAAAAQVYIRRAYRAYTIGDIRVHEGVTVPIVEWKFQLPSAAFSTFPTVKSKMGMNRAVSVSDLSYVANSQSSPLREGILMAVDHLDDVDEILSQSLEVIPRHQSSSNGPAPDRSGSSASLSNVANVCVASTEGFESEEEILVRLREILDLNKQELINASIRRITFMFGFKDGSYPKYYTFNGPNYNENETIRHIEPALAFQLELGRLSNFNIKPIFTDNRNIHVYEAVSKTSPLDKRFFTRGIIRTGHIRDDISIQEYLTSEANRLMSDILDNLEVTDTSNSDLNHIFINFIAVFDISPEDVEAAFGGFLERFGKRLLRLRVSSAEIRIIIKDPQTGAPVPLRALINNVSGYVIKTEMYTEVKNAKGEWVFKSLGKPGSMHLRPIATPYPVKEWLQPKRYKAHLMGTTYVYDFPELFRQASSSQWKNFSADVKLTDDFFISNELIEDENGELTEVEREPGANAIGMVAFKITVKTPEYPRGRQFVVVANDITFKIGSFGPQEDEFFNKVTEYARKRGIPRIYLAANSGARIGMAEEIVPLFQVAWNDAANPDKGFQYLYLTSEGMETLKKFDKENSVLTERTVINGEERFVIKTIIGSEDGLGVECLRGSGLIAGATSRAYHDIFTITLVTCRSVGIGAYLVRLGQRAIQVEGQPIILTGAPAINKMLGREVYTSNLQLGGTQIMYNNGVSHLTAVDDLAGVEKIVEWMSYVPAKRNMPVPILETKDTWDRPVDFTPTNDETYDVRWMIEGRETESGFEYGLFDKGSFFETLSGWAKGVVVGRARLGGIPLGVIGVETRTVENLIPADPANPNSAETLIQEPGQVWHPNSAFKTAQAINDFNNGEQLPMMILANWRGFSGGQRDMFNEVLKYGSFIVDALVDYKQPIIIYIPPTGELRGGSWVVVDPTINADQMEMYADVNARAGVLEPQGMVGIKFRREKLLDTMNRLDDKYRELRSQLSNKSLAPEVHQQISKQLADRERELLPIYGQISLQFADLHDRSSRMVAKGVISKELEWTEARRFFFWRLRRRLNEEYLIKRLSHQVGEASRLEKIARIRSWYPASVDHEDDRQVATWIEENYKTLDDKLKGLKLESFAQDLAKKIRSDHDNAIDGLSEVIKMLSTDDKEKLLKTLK
Chain of Human ACC2 (O00763 whole entry): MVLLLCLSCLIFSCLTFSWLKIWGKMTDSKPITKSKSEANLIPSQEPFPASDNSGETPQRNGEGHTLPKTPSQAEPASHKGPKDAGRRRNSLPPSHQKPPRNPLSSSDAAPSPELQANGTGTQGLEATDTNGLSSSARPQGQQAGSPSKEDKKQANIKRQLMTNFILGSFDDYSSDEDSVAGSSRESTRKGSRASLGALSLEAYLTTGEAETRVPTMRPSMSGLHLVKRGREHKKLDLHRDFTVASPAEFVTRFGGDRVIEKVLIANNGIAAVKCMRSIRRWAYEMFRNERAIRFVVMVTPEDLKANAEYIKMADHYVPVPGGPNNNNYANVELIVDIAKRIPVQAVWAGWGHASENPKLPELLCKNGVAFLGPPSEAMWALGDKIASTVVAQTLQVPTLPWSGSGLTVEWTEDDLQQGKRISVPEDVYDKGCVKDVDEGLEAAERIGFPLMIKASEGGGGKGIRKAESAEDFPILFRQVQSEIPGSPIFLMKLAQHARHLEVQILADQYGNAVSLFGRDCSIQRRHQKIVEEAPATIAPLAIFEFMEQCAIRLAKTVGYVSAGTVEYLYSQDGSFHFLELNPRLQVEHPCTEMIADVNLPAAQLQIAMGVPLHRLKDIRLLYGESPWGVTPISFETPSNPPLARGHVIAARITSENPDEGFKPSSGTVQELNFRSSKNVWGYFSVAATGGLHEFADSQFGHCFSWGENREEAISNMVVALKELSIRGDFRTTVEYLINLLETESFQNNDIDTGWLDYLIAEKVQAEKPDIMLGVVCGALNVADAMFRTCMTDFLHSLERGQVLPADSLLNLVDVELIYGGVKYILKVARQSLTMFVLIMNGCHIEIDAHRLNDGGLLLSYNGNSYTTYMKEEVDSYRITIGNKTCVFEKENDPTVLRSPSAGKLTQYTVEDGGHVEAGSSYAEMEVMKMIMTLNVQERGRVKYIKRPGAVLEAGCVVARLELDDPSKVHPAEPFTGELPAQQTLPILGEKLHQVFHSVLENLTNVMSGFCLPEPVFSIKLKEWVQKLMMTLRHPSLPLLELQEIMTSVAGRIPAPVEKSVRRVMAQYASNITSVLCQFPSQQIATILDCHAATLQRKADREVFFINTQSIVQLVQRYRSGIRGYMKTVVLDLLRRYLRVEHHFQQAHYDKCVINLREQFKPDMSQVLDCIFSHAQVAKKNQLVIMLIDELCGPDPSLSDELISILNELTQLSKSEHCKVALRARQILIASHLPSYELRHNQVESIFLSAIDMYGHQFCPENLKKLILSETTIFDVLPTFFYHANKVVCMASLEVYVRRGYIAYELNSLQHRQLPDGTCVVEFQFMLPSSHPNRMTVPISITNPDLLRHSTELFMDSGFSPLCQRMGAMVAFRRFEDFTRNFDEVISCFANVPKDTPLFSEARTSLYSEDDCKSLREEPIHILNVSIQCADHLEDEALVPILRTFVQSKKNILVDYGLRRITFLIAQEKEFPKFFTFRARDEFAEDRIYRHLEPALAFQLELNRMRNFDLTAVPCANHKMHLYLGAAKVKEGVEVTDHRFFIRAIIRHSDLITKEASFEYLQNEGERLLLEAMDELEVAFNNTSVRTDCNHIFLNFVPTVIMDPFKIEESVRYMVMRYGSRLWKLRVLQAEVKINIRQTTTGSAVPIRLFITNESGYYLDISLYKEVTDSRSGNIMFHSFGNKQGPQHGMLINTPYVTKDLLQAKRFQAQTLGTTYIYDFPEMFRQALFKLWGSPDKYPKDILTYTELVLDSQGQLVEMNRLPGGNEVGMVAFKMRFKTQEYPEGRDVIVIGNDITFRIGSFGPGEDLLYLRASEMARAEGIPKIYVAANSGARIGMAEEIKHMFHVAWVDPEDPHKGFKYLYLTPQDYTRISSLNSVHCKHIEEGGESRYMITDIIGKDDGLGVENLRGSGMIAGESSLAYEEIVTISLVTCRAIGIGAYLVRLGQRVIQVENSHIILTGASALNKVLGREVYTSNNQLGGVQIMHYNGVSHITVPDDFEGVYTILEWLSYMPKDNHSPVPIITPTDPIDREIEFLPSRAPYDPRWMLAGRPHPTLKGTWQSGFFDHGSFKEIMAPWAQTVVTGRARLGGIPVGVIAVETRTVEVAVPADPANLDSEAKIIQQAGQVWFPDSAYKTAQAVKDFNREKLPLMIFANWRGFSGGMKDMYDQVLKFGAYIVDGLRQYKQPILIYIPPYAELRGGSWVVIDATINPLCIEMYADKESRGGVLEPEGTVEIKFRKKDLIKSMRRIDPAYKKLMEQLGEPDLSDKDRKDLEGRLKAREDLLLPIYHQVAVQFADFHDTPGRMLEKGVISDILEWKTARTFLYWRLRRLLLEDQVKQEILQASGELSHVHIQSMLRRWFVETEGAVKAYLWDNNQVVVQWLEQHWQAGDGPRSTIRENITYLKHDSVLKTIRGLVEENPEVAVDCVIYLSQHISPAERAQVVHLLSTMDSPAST

Row | Compound | IC90 (Botrtyis cinerea (Bc); 48 h) [µg/mL] | pIC50 (Fungal ACC2) | IC90 ([1]; 48 h) [µg/mL] | IC90 ([2]; 48 h) [µg/mL] | IC90 ([3]; 48 h) [µg/mL] | IC90 (Diplodia maydis (Dm); 48 h) [µg/mL] | pest or weed control at 50 ppm ([4]; foliar) [%] | Barley Powdery Mildew Control at 10 ppm [5] | pIC50 (Human ACC2) | IC90 ([6]; 48 h) [µg/mL] | IC90 (Rhizoctonia solani (Rs); 48 h) [µg/mL] | IC90 (Botrtyis cinerea (Bc); 48 hours) [µg/mL] | IC90 ([1]; 48 hours) [µg/mL] | IC90 ([2]; 48 hours) [µg/mL] | IC90 ([3]; 48 hours) [µg/mL] | IC90 (Diplodia maydis (Dm); 48 hours) [µg/mL] | pest or weed control at 50 ppm [4, 8] [%] | IC90 ([6]; 48 hours) [µg/mL] | IC90 (Rhizoctonia solani (Rs); 48 hours) [µg/mL] | IC90 (Septoria tritici (St); 48 hours) [µg/mL] | further results
1 | COCCO[C@@H](Cn1c(=O)n([C@H]2CCNC2=O)c(=O)c2c(C)c(-n3nccn3)sc21)c1cc(F)ccc1OC [Compound I-25, 1-((R)-2-(5-fluoro-2-methoxyphenyl)-2-(2-methoxy-ethoxy)ethyl)-5-methyl-3-((S)-2-oxopyrrolidin-3-yl)-6-(2H-1,2,3-triazol-2-yl)thieno[2,3-d]pyrimidine-2,4(1H,3H)-dione] | > 50 | 8.00 to 8.70 | 10 (≈ 17.9 µM) | > 50 | > 50 | > 50 | 50 to 69 | D (provided a compound having <25% control of barley powdery mildew) | 7.00 to 8.00 | > 50 | > 50 |  |  |  |  |  |  |  |  |  | IC90 (Septoria tritici (St); 48 h): > 50 µg/mL
2 | COCCO[C@@H](Cn1c(=O)n([C@@H]2CCNC2=O)c(=O)c2c(C)c(-n3nccn3)sc21)c1cc(F)ccc1OC [Compound I-26, 1-((R)-2-(5-fluoro-2-methoxyphenyl)-2-(2-methoxy-ethoxy)ethyl)-5-methyl-3-((R)-2-oxopyrrolidin-3-yl)-6-(2H-1,2,3-triazol-2-yl)thieno[2,3-d]pyrimidine-2,4(1H,3H)-dione] | 10 (≈ 17.9 µM) | 8.70 to 9.15 | 2 (≈ 3.58 µM) | > 50 | 10 (≈ 17.9 µM) | > 50 | 70 to 84 | D (provided a compound having <25% control of barley powdery mildew) | 8.00 to 8.70 | > 50 | > 50 |  |  |  |  |  |  |  |  |  | IC90 (Septoria tritici (St); 48 h): > 50 µg/mL
3 | COc1ccc(F)cc1[C@H](Cn1c(=O)n([C@@H]2CCNC2=O)c(=O)c2c(C)c(-n3nccn3)sc21)OCCO [Compound I-81, 1-((R)-2-(5-fluoro-2-methoxyphenyl)-2-(2-hydroxy-ethoxy)ethyl)-5-methyl-3-((R)-2-oxopyrrolidin-3-yl)-6-(2H-1,2,3-triazol-2-yl)thieno[2,3-d]pyrimidine-2,4(1H,3H)-dione] |  | 8.70 to 9.15 |  |  |  |  |  | D (provided a compound having <25% control of barley powdery mildew) | 8.00 to 8.70 |  |  | 2 (≈ 3.67 µM) | 2 (≈ 3.67 µM) | 10 (≈ 18.4 µM) | 2 (≈ 3.67 µM) | 10 (≈ 18.4 µM) | 25 to 49 | 10 (≈ 18.4 µM) | 10 (≈ 18.4 µM) | > 50 | 
4 | COc1ccc(F)cc1[C@H](Cn1c(=O)n([C@@H]2CCN(C(C)C)C2=O)c(=O)c2c(C)c(-n3nccn3)sc21)OCCO [Compound I-85, 1-((R)-2-(5-fluoro-2-methoxyphenyl)-2-(2-hydroxy-ethoxy)ethyl)-3-((S)-1-isopropyl-2-oxopyrrolidin-3-yl)-5-methyl-6-(2H-1,2,3-triazol-2-1)thieno[2,3-d]pyrimidine-2,4(1H,3H)-dione] |  |  |  |  |  |  |  | C (provided a compound having from 25 to 49% control of barley powdery mildew) | 7.00 to 8.00 |  |  | 2 (≈ 3.41 µM) | 2 (≈ 3.41 µM) | 2 (≈ 3.41 µM) | 2 (≈ 3.41 µM) | 2 (≈ 3.41 µM) | 70 to 84 | > 50 | 2 (≈ 3.41 µM) | > 50 | MIC (C. albicans ATCC 90028): 2.1 to 4 µg/mL (≈ 3.58 to 6.82 µM); MIC [7]: 2.1 to 4 µg/mL (≈ 3.58 to 6.82 µM); MIC (C. krusei ATCC 6258): 2.1 to 4 µg/mL (≈ 3.58 to 6.82 µM)
5 | COc1ccc(F)cc1[C@H](Cn1c(=O)n([C@@H]2CCNC2=O)c(=O)c2c(C)c(-n3nccn3)sc21)OCCC#N [Compound I-107, 3-((R)-1-(5-fluoro-2-methoxyphenyl)-2-(5-methyl-2,4-dioxo-3-((R)-2-oxopyrrolidin-3-yl)-6-(2H-1,2,3-triazol-2-yl)-3,4-dihydrothieno[2,3-d]pyrimidin-1(2H)-yl)ethoxy)propanenitrile] |  | 8.70 to 9.15 |  |  |  |  |  | C (provided a compound having from 25 to 49% control of barley powdery mildew) | 8.00 to 8.70 |  |  | 2 (≈ 3.61 µM) | 2 (≈ 3.61 µM) | 10 (≈ 18.1 µM) | 2 (≈ 3.61 µM) | 10 (≈ 18.1 µM) | 50 to 69 | > 50 | 2 (≈ 3.61 µM) | > 50 | 
6 | COc1ccc(F)cc1[C@H](Cn1c(=O)n([C@@H]2CCCNC2=O)c(=O)c2c(C)c(-n3nccn3)sc21)OCCC(=O)O [Compound I-178, 3-((R)-1-(5-fluoro-2-methoxyphenyl)-2-(5-methyl-2,4-dioxo-3-((R)-2-oxopiperidin-3-yl)-6-(2H-1,2,3-triazol-2-yl)-3,4-dihydrothieno[2,3-d]pyrimidin-1(2H)-yl)ethoxy)propanoic acid] |  | 8.70 to 9.15 |  |  |  |  |  | D (provided a compound having <25% control of barley powdery mildew) | 7.00 to 8.00 |  |  | > 50 | 10 (≈ 17 µM) | 10 (≈ 17 µM) | > 50 | > 50 | 25 to 49 | > 50 | 2 (≈ 3.41 µM) | > 50 | 
